Data set [1] is described as follows: Solubilizing Daunorubicine. The data set is classed as physicochemical. Conditions: 2 mg/ml in GENC or RO water. How it is done:
Required concentration: 2 mg/ml

The nature of data set [2]: Solvent capability: Taxol (Example 28). Conditions: 0.5 mM in DMSO or in the composition with 17% EtOH. The data set is classed as physicochemical. The procedure:
0.5 mM Taxol solution can be prepared (0.0017 gr in 4 ml) in either DMSO or the enriched nanostructure composition of the present embodiments with 17% EtOH. Absorbance can be detected with a spectrophotometer.

Results on 2 compounds are retold here after patent publication US20110178182A1, “ENRICHED NANOSTRUCTURE COMPOSITION” (DO-COOP TECHNOLOGIES LTD., priority 2007, published 2011).

SMILES strings stand for the structures.

Turning to `COc1cccc2c1C(=O)c1c(O)c3c(c(O)c1C2=O)C[C@@](O)(C(C)=O)C[C@@H]3O[C@H]1C[C@H](N)[C@H](O)[C@H](C)O1` [Daunorubicine], the dissolution result in data set [1] was “dissolved easily both in the enriched nanostructure composition of the present embodiments and in RO water”.
Regarding `CC(=O)O[C@H]1C(=O)[C@@]2(C)[C@H]([C@H](OC(=O)c3ccccc3)[C@]3(O)C[C@H](OC(=O)[C@H](O)[C@@H](NC(=O)c4ccccc4)c4ccccc4)C(C)=C1C3(C)C)[C@]1(OC(C)=O)CO[C@@H]1C[C@@H]2O` [Taxol, Paclitaxel], the dissolution entry in data set [2] was “dissolved both in DMSO and the enriched nanostructure composition”.
